The conditions of data set [1]: in EtOH; cited from earlier work.
For data set [2] the following is noted: in EtOH; cited from earlier work. The source holds these as a separate data set.
The conditions of data set [3]: in MeOH; cited from earlier work.
For data set [4], the target named is T1, endogenous OTR (oxytocin receptor) in mammary glands (Mus musculus, UniProt P97926).
T1 construct: target-specific imaging of the naturally expressed receptor in living mice; from tissue; host or cells: living lactating Swiss mice (mammary glands), in vivo imaging
T1 sequence (P97926 1-388): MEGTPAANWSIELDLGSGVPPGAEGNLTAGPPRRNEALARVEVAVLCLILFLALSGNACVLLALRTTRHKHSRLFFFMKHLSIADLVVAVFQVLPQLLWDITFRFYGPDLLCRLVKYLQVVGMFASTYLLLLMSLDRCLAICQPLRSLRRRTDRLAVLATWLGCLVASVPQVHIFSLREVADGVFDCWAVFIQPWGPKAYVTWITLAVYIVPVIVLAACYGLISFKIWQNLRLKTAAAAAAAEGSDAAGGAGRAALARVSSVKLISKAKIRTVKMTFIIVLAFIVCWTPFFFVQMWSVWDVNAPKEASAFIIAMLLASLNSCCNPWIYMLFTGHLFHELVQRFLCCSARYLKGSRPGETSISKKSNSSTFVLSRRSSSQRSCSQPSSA
The experiment in a line: In vivo fluorescence biodistribution study (small animal fluorescence imaging). The settings on record: lactating mice, 7.5 nmol i.v., imaged 30 min after.
Protocol: Representative images of at least 3 biological replicates.
Twelve-week-old pregnant female Swiss mice were purchased from Janvier Laboratories (France). Animals were maintained under controlled environmental conditions (20±2° C.) with a relative humidity (50±10%) and a 12 hour light/dark cycle in Individually ventilated cages (GM500, Techniplast) with bedding made from spruce wood chips (Safe, villeAugy, France) and enriched with nestlets. Food (autoclavable diet, D04, Safe, France) and tap water were available ad libitum. Animal experimentation was conducted with the approval of the French ministry of agriculture and the Ethics local committee for animal experimentation of the Strasbourg University (CREMEAS) under the authorization number #11974-2017103010101372.
Animal fluorescence imaging was performed using a luminograph (NightOwl, Berthold Technologies). Lactating mice 11 days after delivery were anesthetized intraperitoneally (Ketamine 150 mg/kg, xylazine 10 mg/kg). Fluorescent compounds (100 μL containing 7.5 nmol in 0.9% NaCl) with or without non-fluorescent carbetocin (100 μL containing 450 nmol in 0.9% NaCl) were administered intravenously (tail vein). […] Mice were imaged using a halogen lamp (75 W, 340-750 nm) and emission of the dyes was recorded using a 630/700 nm filter. […]

Data set [5] relates to GFP-fused oxytocin receptor (GFP-OTR). The experiment in a line: Fluorescence confocal microscopy on living HEK293 cells expressing GFP-OTR, no-wash conditions. It counts as cell-based. The settings on record: 500 nM. The procedure:
FIG. 1: Confocal microscopy studies of dCy5.5-PEG-CBT and mCy5.5-PEG-CBT on living HEK 293 cells expressing OTR-GFP fusion under no-wash conditions. Cells were incubated with the ligands for 5 min at room temperature prior to the imaging.
HEK293 cells expressing the GFP-fused oxytocin receptor (GFP-OTR) and wild-type HEK293 cells were cultured in Eagle's minimal essential medium (MEM, Invitrogen 21090) with 10% of heat-inactivated fetal bovine serum, 100 U/mL of penicillin, 100 µg/mL of streptomycin, 2 mM of glutamine and 50 µg/mL of hygromycin B for GFP-OTR cells at 37° C. in a humidified 5% CO2 atmosphere. 70-80% cell confluence was maintained by removal of a portion of the culture and replacement with fresh medium twice a week. For confocal microscopy studies, cells were seeded onto 35 mm ibiTreat Ibidi Polymer Coverslip at a density of 100 000 cells/Ibidi 24 h before microscopy.
[…] For competition experiments, a mixture of 10 nM of fluorescent ligands and 2 μM of carbetocin was used. Fluorescence confocal microscopy experiments were performed on a Leica TCS SPE-II microscope with a HXC PL APO 63×/1.40 OIL CS objective. GFP excitation was performed with a 488 nm 10 mW laser, the excitation of Cy5.5 was performed with a 635 nm 18 mW laser. Image treatment was proceeded using ImageJ (Wayne Rasband, National Institute of Mental Health, Bethesda).

Where two headings read alike, the source gives them in different places.

This is an account of results in US12643855B2, “Fluorogenic dimer compound, useful as a probe for detection of endogenous receptors” (UNIVERSITE DE STRASBOURG, priority 2020, dated 2026).

Turning to Rhodamine 800, the “Fluorescence quantum yield (QY) of the reference” value in data set [1] and in data set [2] was 25% each time. As to `CCCCCCCCCCCCCCCCCCN1/C(=C/C=C/C=C/C2=[N+](CCCCCCCCCCCCCCCCCC)c3ccccc3C2(C)C)C(C)(C)c2ccccc21.[O-][Cl+3]([O-])([O-])[O-]` [DID], in data set [3], the “Fluorescence quantum yield (QY) of the reference” value is given as 33%. Take `CC[C@H](C)[C@@H]1NC(=O)[C@H](Cc2ccc(OC)cc2)NC(=O)CCCSC[C@@H](C(=O)N2CCC[C@H]2C(=O)N[C@@H](CCCCn2cc(CNC(=O)CCNC(=O)CCC(=O)NCCOCCOCCNC(=O)CCC(=O)NCCOCCOCCNC(=O)CCC(=O)NCCOCCOCCNC(=O)CCCCCN3/C(=C/C=C/C=C/C4=[N+](CCOCCOCCOCCOCCOCCOCCOCCOC)c5ccc6ccccc6c5C4(C)C)C(C)(C)c4c3ccc3ccccc43)nn2)C(=O)NCC(N)=O)NC(=O)[C@H](CC(N)=O)NC(=O)[C@H](CCC(N)=O)NC1=O.O=C([O-])C(F)(F)F` [mCy5.5-PEG-CBT]: in data set [4], the Off-target fluorescence signal entry is listed as “strong off-target fluorescence”. The “Image background from unbound probe” value in data set [5] was “strong background”.
